Source: patent US6844020B2, “Solutions of carotenoids for use in foods and personal care products” (Kemin Foods, L.C., priority 2002, dated 2005)
“And” between values parts separate entries of the source, which are not always exact repeats. Equal entries are not always repeated. Where two headings read alike, the source gives them in different places.

How the values were obtained:
[1] = Lutein solubility in essential oils; assay type: physicochemical
Description: Lutein dry cake was dissolved in each oil until visibly saturated. The sample was then blanketed with argon and sonicated for ten minutes. If the all the lutein appeared to go into solution, more was added and the process repeated. After the sample was completely saturated, the sample was transferred to a microcentrifuge tube and centrifuged at 14,000 rpm for 10 minutes. If the lutein was not pelleted by centrifugation, the sample was passed through a 0.22 μm filter unit to remove any suspended lutein. The clarified oil was then analyzed for lutein content using UV-VIS and HPLC.
Lutein content was measured by using an analytical method as follows. Using an analytical balance, 10-20 mg of the sample is weighed into a 100 ml volumetric flask. The sample is diluted to the mark with HEAT (10:6:7:7 v:v:v:v hexane:ethanol:acetone:toluene), and the mixture is agitated or stirred until the sample is dissolved. One ml of this solution is transferred by pipette into a 100 ml amber volumetric flask and diluted to the mark with ethanol. The absorbance of the ethanol solution is measured at 446 nm on a UV/Vis spectrophotometer that has previously been zeroed against ethanol. For analysis by HPLC, 1 ml of the ethanol solution is transferred to an HPLC sample vial and dried using a nitrogen or argon gas stream. The dried sample is dissolved in 1 ml of HPLC mobile phase; sonication may be necessary to complete the solution. The HPLC instrument is set with the following parameters: the column is a 25 cm×4.6 mm nitrile bonded Spherisorb with 5 μm particles; 69 minute run time; flow rate of 1.00 ml/min; back pressure of 64 bar; injection volume of 50 μl; solvent of 75:25:0.35:0.1 (v:v:v:v) hexane/methylene chloride/methanol/diisopropylethylamine (all solvents are HPLC grade); detector is a visible lamp set to 446 nm; and temperature is 22° C. Fifty μl of the ethanol solution is injected into the HPLC column. The peaks at approximately 24, 26, 28.5, 32, 34, 40 and 42 minutes (corresponding to 13, 13′-di-cis-lutein, all-trans-lutein, all-trans-zeaxanthin, 9-cis-lutein, 9′-cis-lutein, 13 and 13′-cis -lutein and 9-cis-zeaxanthin) are integrated and used to determine the HPLC percent area for the lutein peak. The following equations were used for the essential oils: [formula] [formula] [formula]
% Lutein=% Carotenoids*(% Total HPLC area of lutein/100)

[2] = Stability of lutein dry cake in essential oils; assay type: physicochemical; conditions: 20 weeks; for trans lutein dropped: accelerated conditions (40° C.); for lutein lost: ambient (25° C.)
Description: Stability experiments were performed with the best group of essential oils and lutein dry cake. Fresh samples were made, placed in amber vials, blanked with argon and placed onto stability at 25° C. and 40° C. after taking initial % carotenoids and % lutein. Bay, cornmint, peppermint, spearmint, tea tree, pure thyme, red thyme, and white thyme oils were all tested up to 20 weeks. FIGS. 1 and 2 show total carotenoids at ambient and FIGS. 3 and 4 show all trans lutein at ambient conditions. Tea tree oil and bay oil had the best stability of total carotenoids and all trans lutein at ambient conditions. Tea tree lost 32% lutein and pure thyme lost 22% lutein after 20 weeks. It should be noted that the oils were not tested at maximum lutein solubility conditions for stability testing.
FIGS. 5 and 6 show the same set of experiments for total carotenoids at accelerated conditions. FIGS. 7 and 8 show all trans lutein at accelerated conditions. Under accelerated conditions, bay oil, red thyme and pure thyme fared the best for total carotenoids and lutein. Bay oil trans lutein dropped 54% and pure/red thyme oil trans lutein dropped approximately 47% at 20 weeks. It seems the biggest drop occurs during the first 2-week time point then it levels off. All other oils did much worse.

[3] = consumption of lutein and zeaxanthin; Seddon et al., 1994; cited from earlier work
[4] = cited from earlier work

CC1=C[C@H](O)CC(C)(C)[C@H]1/C=C/C(C)=C/C=C/C(C)=C/C=C/C=C(C)/C=C/C=C(C)/C=C/C1=C(C)C[C@@H](O)CC1(C)C [Lutein, lutein]
% Lutein ([1]; in Almond oil, NOW Foods 7660): 0.030%
% Lutein ([1]; in Aloe Vera LQX oil, Lebermuth 50-6010-11, lot Sample): 0.028%
% Lutein ([1]; in Anise, Spanish oil, Lebermuth 50-6015-11, lot Sample): 0.223%
% Lutein ([1]; in Apricot Kernel oil, NOW Foods 7665): 0.035%
% Lutein ([1]; in Bay oil, Lebermuth 50-6025-01, lot BA41-0484): 1% and 1.001%
% Lutein ([1]; in Bay oil, Lebermuth 50-6025-01, lot Sample): 1.152%
% Lutein ([1]; in Bay oil, Spectrum Botanical EO6): 1.327%
% Lutein ([1]; in Bergamot Mint oil, Lebermuth 50-6177-01, lot Sample): 0.325%
% Lutein ([1]; in Birch, Sweet Southern oil, Lebermuth 50-6035-02, lot Sample): 0.236%
% Lutein ([1]; in Cassia, redistilled oil, Lebermuth 50-6060-01, lot Sample): 0.639%
% Lutein ([1]; in Castor oil, NOW Foods 7675): 0.171%
% Lutein ([1]; in Cedarwood, Texas White oil, Lebermuth 50-6075-01, lot Sample): 0.172%
% Lutein ([1]; in Cornmint, Redistilled oil, Lebermuth 50-6100-01, lot CR43-0155): 0.951%
% Lutein ([1]; in Cornmint, Redistilled oil, Lebermuth 50-6100-01, lot Sample): 1.163%
% Lutein ([1]; in Eucalyptus, 80/85 oil, Lebermuth 50-6105-02, lot Sample): 0.672%
% Lutein ([1]; in Eugenol, Lebermuth 50-6110-01, lot Sample): 0.517%
% Lutein ([1]; in Frankincense, Olibanum oil, Lebermuth 50-5100-01, lot Sample): 0.243%
% Lutein ([1]; in Geranium (Rose), Egyptian oil, Lebermuth 50-6130-11, lot Sample): 0.600%
% Lutein ([1]; in Grapefruit, White oil, Lebermuth 50-6140-01, lot Sample): 0.071%
% Lutein ([1]; in Grapeseed oil, NOW Foods 7705): 0.027%
% Lutein ([1]; in Juniperberry oil, Lebermuth 50-6150-02, lot Sample): 0.140%
% Lutein ([1]; in Lemon, California oil, Lebermuth 50-6160-01, lot Sample): 0.071%
% Lutein ([1]; in Lime, distilled oil, Lebermuth 50-6170-01, lot Sample): 0.213%
% Lutein ([1]; in Nutmeg oil, Lebermuth 50-6190-01, lot Sample): 0.122%
% Lutein ([1]; in Peppermint oil, Spectrum Botanical EO64): 1.358%
% Lutein ([1]; in Peppermint, Yakima redistilled oil, Lebermuth 50-6225-21, lot PY43-0157): 0.945%
% Lutein ([1]; in Peppermint, Yakima redistilled oil, Lebermuth 50-6225-21, lot Sample): 1.010%
% Lutein ([1]; in Red Thyme Thymus satureioides oil, Spectrum Botanical, item unspecified): 1.0% and 1.084%
% Lutein ([1]; in Red Thyme Thymus vulgaris oil, Spectrum Botanical EO151): 4.4% and 4.481%
% Lutein ([1]; in Rosemary, Morrocan oil, Lebermuth 50-6230-03, lot Sample): 0.637%
% Lutein ([1]; in Sage, Clary oil, Lebermuth 50-6235-03, lot Sample): 0.294%
% Lutein ([1]; in Spearmint oil, Spectrum Botanical EO76): 1.325%
% Lutein ([1]; in Spearmint, redistilled oil, Lebermuth 50-6250-11, lot 39SR-0163): 1.124%
% Lutein ([1]; in Spearmint, redistilled oil, Lebermuth 50-6250-11, lot Sample): 1.001%
% Lutein ([1]; in Tagetes oil, Lebermuth 50-6261-01, lot Sample): 0.268%
% Lutein ([1]; in Tea Tree oil, Lebermuth 50-6270-01, lot TX43-0146): 0.877%
% Lutein ([1]; in Tea Tree oil, NOW Foods 7625): 1.084%
% Lutein ([1]; in Tea Tree oil, NOW Foods 7625, listed as lutein): about 1%
% Lutein ([1]; in Tea Tree oil, Spectrum Botanical EO80): 0.942%
% Lutein ([1]; in Thyme oil, NOW Foods 7635): 3.582%
% Lutein ([1]; in Thyme oil, NOW Foods 7635, listed as lutein): 2.5%
% Lutein ([1]; in Thyme, Pure oil, Lebermuth 50-6275-04, lot TP41-0053): 3.453%
% Lutein ([1]; in Thyme, Red oil, Lebermuth 50-6275-02, lot TR43-0158): 4.753%
% Lutein ([1]; in Thyme, White oil, Lebermuth 50-6275-01, lot TLC11-T477): 3.0% and 3.095%
% Lutein ([1]; in White Thyme oil (from private source), item unspecified): 5.068%
% Lutein ([1]; in White Thyme oil, Spectrum Botanical EO82): 4.9% and 4.903%
% Lutein ([1]; in Wintergreen, Natural oil, Lebermuth 50-6285-11, lot Sample): 0.226%
% Lutein ([1]; in Wormwood, Natural oil, Lebermuth 50-6290-01, lot Sample): 0.682%
lutein solubility ([1]; in citrus oils (white grapefruit, lemon, lime)): 0.071-0.21%
lutein solubility ([1]; in grapeseed, almond and apricot kernel oils, NOW Foods): 0.02-0.03%
lutein solubility ([1]; in spearmint oil (text comparison with beta-carotene)): ~1.0%
lutein solubility ([1]; in thyme oils (red, white, pure)): 3.0-4.7% and 3.5-5% and 3-5%
trans lutein dropped ([2]; in bay oil): 54%
lutein lost ([2]; in pure thyme oil): 22%
trans lutein dropped ([2]; in pure/red thyme oil): approximately 47%
lutein lost ([2]; in tea tree oil): 32%
reduction in age-related macular degeneration [3]: 57%
reported solubility ([4]; in canola oil): 0.029%
reported solubility ([4]; in corn oil): 0.042%
reported solubility ([4]; in safflower oil): 0.033%
reported solubility ([4]; in soybean oil): 0.032%
